In patent US20150004110A1, “NOVEL ANTI-AGING AND DEPIGMENTING COSMETIC COMPOSITIONS” (DIVERCHIM, priority 2011, published 2015):
Read-outs that look alike come from different tables or passages of the source.

Experiments:
[1] = tested on: B16 melanocytes stimulated with NDP-MSH; experiment: Anti-melanogenesis activity: melanin synthesis in B16 melanocytes stimulated with NDP-MSH; format: cell-based
Method: The depigmenting effect was evaluated on a line of type B16 melanocytes stimulated with NDP-MSH, (natural hormone stimulating melanogenesis; Melanocyte Stimulating Hormone, [Nle, DPhe]-α-MSH). Melanin synthesis was evaluated.
The anti-melanogenesis activity of the compounds in solution in DMSO was evaluated by measuring melanin synthesis in a model of B16 melanocytes stimulated with a stable derivative of α-MSH (natural melanogenesis stimulating hormone): NDP-MSH.
(§1) The melanocytes were seeded in a 96-well plate and were cultured for 24 h (37° C., 5% CO2, DMEM 1 g/L glucose without phenol red supplemented with glucose at 3 g/L, L-glutamine at 2 mM, penicillin at 50 U/mL, streptomycin at 50 μg/mL, foetal calf serum (FCS) at 10%). After incubation, the culture medium was then replaced with culture medium supplemented or not supplemented (unstimulated control) with a stable derivative of α-MSH and containing or not containing (controls) the test compounds or the reference (kojic acid at 25, 100, 400, 800 μg/mL). Each experiment was carried out with n=3, apart from the controls carried out with n=6, then the cells were incubated for 72 h. Wells without cells received in parallel the same quantities of medium supplemented or not supplemented with NDP-MSH and containing or not containing the test compounds or the reference in order to quantify the background noise associated with the presence of the compounds.
After incubation for 72 hours, the total melanin (intra- and extracellular) was quantified by measuring the absorption at 405 nm of each sample (direct reading of the culture plates) against a standard range of melanin (melanin concentrations tested from 0.78 to 100 μg/mL). The background noise, measured in the wells without cells, was subtracted from the measured values so as only to take into account the effect connected with melanin production, without taking into account the possible interference connected with the presence of the compounds. The results were expressed as percentage of melanin relative to the control as well as percentage inhibition.
The operating conditions are the same as in Example 12.

B16 melanocytes = experiment: Cell viability, MTT reduction test; format: cell-based
Method: as §1, with “compounds. At the end of the treatment, the cells were incubated in the presence of MTT (tetrazolium salt), the transformation of which to blue crystals of formazan is proportional to the activity of succinate dehydrogenase (mitochondrial enzyme). After dissociation of the cells, the formazan was dissolved in DMSO medium and the optical density (OD), representative of the number of living cells and of their metabolic reactivity, was measured with a microplate reader at 540 nm (VERSAmax, Molecular Devices). The operating conditions are the same as in Example 12.” for “compounds.”

[2] = Melanocyte, 30 μM, NDP-MSH stimulated B16, 72 h, Table 2, read-out: Standardized data Inhibition (%) (melanin)
[3] = Melanocyte, 100 μM, NDP-MSH stimulated B16, 72 h, Table 2, read-out: Standardized data Inhibition (%) (melanin)
[4] = Melanocyte, NDP-MSH stimulated B16, 72 h, Table 2, read-out: Standardized data Inhibition (%) (melanin)
[5] = 30 μM, NDP-MSH stimulated B16, 72 h, Table 2
[6] = 100 μM, NDP-MSH stimulated B16, 72 h, Table 2
[7] = Melanocyte, 30 μM, comparison with 2 reference molecules, Table 3, read-out: Standardized data Inhibition (%) (melanin)
[8] = Melanocyte, 100 μM, comparison with 2 reference molecules, Table 3, read-out: Standardized data Inhibition (%) (melanin)

Compound | inhibition at 30 µM [1, 2] [%] | inhibition at 100 µM [1, 3] [%] | Viability (MTT) % stimulated control (B16 melanocytes; 30 μM, B16, 72 h, Table 2) [%] | Viability (MTT) % stimulated control (B16 melanocytes; 100 μM, B16, 72 h, Table 2) [%] | also measured
CC(=O)Nc1ccc(OCCc2ccccc2OC(C)=O)cc1 [Compound 22] | -3 | 61 | 97 | 86 | –
CCOc1ccc(OCC(O)c2ccccc2O)cc1 (stereo not drawn) [Compound 57] | 47 | – | 97 | – | –
Oc1ccccc1CCOc1ccc(Cl)cc1 [Compound 31] | 109 | – | 88 | – | inhibition at 3 µM [1, 4]: 20%; inhibition at 10 µM [1, 4]: 70%; Viability (MTT) % stimulated control (B16 melanocytes; 3 μM, B16, 72 h, Table 2): 91%; Viability (MTT) % stimulated control (B16 melanocytes; 10 μM, B16, 72 h, Table 2): 104%
CC(C)c1ccc(OCC(=O)c2ccccc2O)cc1 [Compound 40] | 58 | – | 90 | – | inhibition at 10 µM [1, 4]: 5%; Viability (MTT) % stimulated control (B16 melanocytes; 10 μM, B16, 72 h, Table 2): 102%
CCc1ccc(OCCc2ccccc2O)cc1 [Compound 35] | 112 | – | 88 | – | inhibition at 3 µM [1, 4]: 54%; inhibition at 10 µM [1, 4]: 92%; Viability (MTT) % stimulated control (B16 melanocytes; 3 μM, B16, 72 h, Table 2): 105%; Viability (MTT) % stimulated control (B16 melanocytes; 10 μM, B16, 72 h, Table 2): 97%
O=[N+]([O-])c1ccc(OCCc2ccccc2O)cc1 [Compound 19] | 82 | 111 | 91 | 0 | –
O=c1cc(CO)occ1O [Kojic acid, reference compound] | – | – | – | – | inhibition at 25 µg/mL ([1]; Melanocyte, 25 μg/mL, NDP-MSH stimulated B16, 72 h, Table 2, read-out: Standardized data Inhibition (%) (melanin)): 24%; inhibition at 100 µg/mL ([1]; Melanocyte, 100 μg/mL, NDP-MSH stimulated B16, 72 h, Table 2, read-out: Standardized data Inhibition (%) (melanin)): 78%; inhibition at 400 µg/mL ([1]; Melanocyte, 400 μg/mL, NDP-MSH stimulated B16, 72 h, Table 2, read-out: Standardized data Inhibition (%) (melanin)): 90%; Viability (MTT) % stimulated control (B16 melanocytes; 25 μg/mL, B16, 72 h, Table 2): 85%; Viability (MTT) % stimulated control (B16 melanocytes; 100 μg/mL, B16, 72 h, Table 2): 76%; Viability (MTT) % stimulated control (B16 melanocytes; 400 μg/mL, B16, 72 h, Table 2): 76%
Fc1ccc(OCCc2ccccc2Br)cc1 [Compound 8] | – | – | 94 | 93 | Standardized data Inhibition (%) (melanin) [1, 5]: −27%; Standardized data Inhibition (%) (melanin) [1, 6]: 50%
CCCCc1ccc(O)cc1O [Ref 1, 4-(2,4-dihydroxyphenyl)butane, reference compound] | – | – | – | – | inhibition at 30 µM [1, 7]: 82%; inhibition at 100 µM [1, 8]: 100%
CC(=O)O[C@@H]1[C@@H](OC(C)=O)[C@@H](OC(C)=O)C(Oc2ccccc2CCOc2ccc(F)cc2)O[C@H]1C (stereo partly drawn) [Compound 127] | 29 | – | 90 | – | –
COc1ccc(OCCc2ccccc2O)cc1 [Compound 4] | – | – | 97 | 54 | Standardized data Inhibition (%) (melanin) [1, 5]: 95%; Standardized data Inhibition (%) (melanin) [1, 6]: 111%
Cc1ccc(OCCc2ccccc2O)cc1 [Compound 2] | 100 | 112 | 108 | 34 | –
CCCc1ccc(OCCc2ccccc2O)cc1 [Compound 130] | 116 | – | 81 | – | inhibition at 3 µM [1, 4]: 72%; inhibition at 10 µM [1, 4]: 110%; Viability (MTT) % stimulated control (B16 melanocytes; 3 μM, B16, 72 h, Table 2): 98%; Viability (MTT) % stimulated control (B16 melanocytes; 10 μM, B16, 72 h, Table 2): 89%
Cc1cccc(CCOc2ccc(F)cc2)c1 [Compound 11] | -2 | 44 | 83 | 109 | –
COc1ccc(CCCc2ccc(O)cc2O)c(OC)c1C [Ref 2, 1-(2,4-dihydroxyphenyl)-3-(2,4-dimethoxy-3-methylphenyl)propane, reference compound] | – | – | – | – | inhibition at 30 µM [1, 7]: 45%; inhibition at 100 µM [1, 8]: 113%; Viability (MTT) % stimulated control (B16 melanocytes; 30 μM, comparison with 2 reference molecules, Table 3): 102%; Viability (MTT) % stimulated control (B16 melanocytes; 100 μM, comparison with 2 reference molecules, Table 3): 76%
COc1ccccc1OCC(O)c1ccccc1O (stereo not drawn) [Compound 125] | 13 | – | 90 | – | –

Compound | inhibition at 30 µM [1, 2] [%] | inhibition at 100 µM [1, 3] [%] | Viability (MTT) % stimulated control (B16 melanocytes; 30 μM, B16, 72 h, Table 2) [%] | Viability (MTT) % stimulated control (B16 melanocytes; 100 μM, B16, 72 h, Table 2) [%] | also measured
Oc1ccccc1CCOc1ccc(Br)cc1 [Compound 3] | 110 | 112 | 96 | 0 | –
CC(=O)OC[C@H]1OC(Oc2ccccc2CCOc2ccc(F)cc2)[C@H](OC(C)=O)[C@@H](OC(C)=O)[C@@H]1OC(C)=O (stereo partly drawn) [Compound 30] | 13 | – | 88 | – | –
Oc1ccccc1C(O)COc1ccc(F)cc1 (stereo not drawn) [Compound 24] | -12 | 84 | 76 | 78 | –
COc1ccccc1CCOc1ccc(F)cc1 [Compound 16] | -33 | 52 | 87 | 83 | –
CCC(C)(C)c1ccc(OCC(=O)c2ccccc2O)cc1 [Compound 44] | 117 | – | 80 | – | inhibition at 10 µM [1, 4]: 24%; Viability (MTT) % stimulated control (B16 melanocytes; 10 μM, B16, 72 h, Table 2): 89%
Fc1ccc(OCCc2ccccc2C(F)(F)F)cc1 [Compound 10] | -11 | 27 | 87 | 91 | –
CC(C)(C)c1ccc(OCCc2ccccc2O)cc1 [Compound 47] | 116 | – | 18 | – | inhibition at 3 µM [1, 4]: 75%; inhibition at 10 µM [1, 4]: 111%; Viability (MTT) % stimulated control (B16 melanocytes; 3 μM, B16, 72 h, Table 2): 116%; Viability (MTT) % stimulated control (B16 melanocytes; 10 μM, B16, 72 h, Table 2): 89%
CCC(C)(C)c1ccc(OCCc2ccccc2O)cc1 [Compound 43] | 120 | – | 9 | – | inhibition at 3 µM [1, 4]: 88%; inhibition at 10 µM [1, 4]: 119%; Viability (MTT) % stimulated control (B16 melanocytes; 3 μM, B16, 72 h, Table 2): 116%; Viability (MTT) % stimulated control (B16 melanocytes; 10 μM, B16, 72 h, Table 2): 90%
Fc1ccc(CCOc2ccccc2OCc2ccccc2)cc1 [Compound 25] | 46 | – | 93 | – | –
COc1ccc(OCCc2ccccc2OC)cc1 [Compound 14] | -22 | 100 | 89 | 80 | –
CC(C)c1ccc(OCCc2ccccc2O)cc1 [Compound 39] | 119 | – | 86 | – | inhibition at 3 µM [1, 4]: 70%; inhibition at 10 µM [1, 4]: 111%; Viability (MTT) % stimulated control (B16 melanocytes; 3 μM, B16, 72 h, Table 2): 119%; Viability (MTT) % stimulated control (B16 melanocytes; 10 μM, B16, 72 h, Table 2): 101%
Oc1ccccc1CCOc1ccccc1 [Compound 5] | – | – | 103 | 67 | Standardized data Inhibition (%) (melanin) [1, 5]: 49%; Standardized data Inhibition (%) (melanin) [1, 6]: 111%
Oc1ccccc1CCOc1ccc(OCc2ccccc2)cc1 [Compound 20] | 115 | – | 59 | – | inhibition at 3 µM [1, 4]: 83%; inhibition at 10 µM [1, 4]: 108%; Viability (MTT) % stimulated control (B16 melanocytes; 3 μM, B16, 72 h, Table 2): 106%; Viability (MTT) % stimulated control (B16 melanocytes; 10 μM, B16, 72 h, Table 2): 84%
Oc1ccc(OCCc2ccccc2F)cc1 [Compound 27] | 95 | – | 77 | – | –
COc1ccccc1C1(COc2ccc(F)cc2)CC1 [Compound 18] | -21 | 105 | 80 | 75 | –
